Source: US20240245659A1, “Methods of Treating Cushing's Syndrome and Liver Disorders, and of Reducing Liver Toxicity of Other Drugs Administered to a Patient” (Corcept Therapeutics Incorporated, priority 2022, published 2024)

Assays:
[1] = Phase 2 Cushing's syndrome study, low-dose and high-dose groups; assay type: in vivo, human
Procedure: A multicenter, open-label study with two dose groups enrolled 34 patients (aged 18-80 years) with endogenous Cushing's Syndrome (CS) and impaired glucose tolerance or type 2 diabetes mellitus and/or uncontrolled or untreated hypertension. Patients with elevated AST or ALT (elevated defined as greater than 3-times the ULN) were excluded. These patients were treated with relacorilant at two dosage levels. The dosages for each group were escalated in 50-mg dose increments every 4 weeks. The low dose group received relacorilant beginning at a dose of 100 mg/day, escalating to dosages of 200 mg/day during the duration of the 12-week treatment. The high-dose group received relacorilant beginning at a dose of 250 mg/day, escalating to a dosage of 400 mg/day during the duration of the 16-week treatment. The P-values shown are the P-values for the mean change from baseline to last observation calculated from the Wilcoxon signed-rank test. The Efficacy Population includes all patients treated with relacorilant who had postbaseline data.

[2] = via CYP3A and carbonyl reductase; cited from earlier work
CYP2C9 = CYP2C9 (Homo sapiens, UniProt P11712); settings: on administration; cited from earlier work
Chain of CYP2C9 (P11712 whole entry): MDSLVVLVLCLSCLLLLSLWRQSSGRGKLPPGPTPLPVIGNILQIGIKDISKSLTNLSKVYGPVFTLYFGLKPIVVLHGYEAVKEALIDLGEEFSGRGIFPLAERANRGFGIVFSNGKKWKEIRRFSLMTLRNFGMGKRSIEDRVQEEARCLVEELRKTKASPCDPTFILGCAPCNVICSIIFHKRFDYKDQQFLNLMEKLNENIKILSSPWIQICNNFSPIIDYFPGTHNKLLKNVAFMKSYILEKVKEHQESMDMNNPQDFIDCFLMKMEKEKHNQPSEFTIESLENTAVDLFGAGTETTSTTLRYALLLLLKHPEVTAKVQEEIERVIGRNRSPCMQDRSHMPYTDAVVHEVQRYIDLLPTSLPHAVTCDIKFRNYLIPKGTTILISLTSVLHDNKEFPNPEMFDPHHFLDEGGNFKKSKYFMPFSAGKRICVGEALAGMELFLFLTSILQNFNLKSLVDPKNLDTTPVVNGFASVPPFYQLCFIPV

[3] = Phase 1 hepatic impairment study of relacorilant (moderate hepatic impairment vs matched controls); assay type: in vivo, human
Procedure: A phase 1, open-label, multiple-dose study included 18 subjects (18-70 years). Of these subjects, 9 subjects had moderate hepatic impairment (Child—Pugh Class B) and 9 subjects were controls with normal hepatic function matched for age, sex, and body weight.
Relacorilant was administered at a dose of 300 mg/day for 10 days under fasted conditions. Blood samples for pharmacokinetic (PK) analysis were collected before dosing on Day 1 and from before dosing on Day 10 through 144 hours after the last dose of study drug (Day 16).
Subjects with moderate hepatic impairment were well matched for age, sex, and body weight Mean total Child-Pugh score of 7.9 (range: 7-9) in subjects with moderate hepatic impairment. Liver function was assessed by measurements of alanine aminotransferase (ALT) and aspartate aminotransferase (AST) levels.

CYP3A4 = CYP3A4 (Homo sapiens, UniProt P08684); settings: in vivo; cited from earlier work
Chain of CYP3A4 (P08684 whole entry): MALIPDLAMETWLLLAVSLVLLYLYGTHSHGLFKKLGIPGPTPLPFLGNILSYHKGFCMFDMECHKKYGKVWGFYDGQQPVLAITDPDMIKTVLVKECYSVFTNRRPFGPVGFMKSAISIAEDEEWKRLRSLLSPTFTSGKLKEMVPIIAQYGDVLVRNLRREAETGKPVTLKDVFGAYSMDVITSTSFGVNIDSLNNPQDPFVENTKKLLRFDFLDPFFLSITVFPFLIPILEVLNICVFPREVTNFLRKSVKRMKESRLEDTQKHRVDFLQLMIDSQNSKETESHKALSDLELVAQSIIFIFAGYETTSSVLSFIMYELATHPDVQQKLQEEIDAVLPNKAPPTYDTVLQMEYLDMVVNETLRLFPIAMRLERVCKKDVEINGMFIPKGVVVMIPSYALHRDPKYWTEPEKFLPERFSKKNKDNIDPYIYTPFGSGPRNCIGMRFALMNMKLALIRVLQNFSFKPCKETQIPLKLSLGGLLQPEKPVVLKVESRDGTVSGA

CYP2C8 = target: T1, CYP2C8 (Homo sapiens, UniProt P10632); settings: on administration; cited from earlier work
T1 sequence (P10632 1-490): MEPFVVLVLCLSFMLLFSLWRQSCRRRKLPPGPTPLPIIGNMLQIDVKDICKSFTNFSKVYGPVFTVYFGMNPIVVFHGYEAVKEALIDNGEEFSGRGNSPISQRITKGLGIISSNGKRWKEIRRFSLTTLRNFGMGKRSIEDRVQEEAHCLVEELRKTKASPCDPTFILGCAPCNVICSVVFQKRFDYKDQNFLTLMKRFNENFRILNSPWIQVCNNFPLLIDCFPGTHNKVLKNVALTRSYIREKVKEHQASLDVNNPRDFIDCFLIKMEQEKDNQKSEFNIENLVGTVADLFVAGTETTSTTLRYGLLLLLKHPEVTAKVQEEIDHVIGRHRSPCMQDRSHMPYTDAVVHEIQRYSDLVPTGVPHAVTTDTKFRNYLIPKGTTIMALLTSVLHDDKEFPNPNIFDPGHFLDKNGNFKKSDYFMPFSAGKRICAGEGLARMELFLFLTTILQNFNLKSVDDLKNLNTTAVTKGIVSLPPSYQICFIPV

[4] = Cushing's syndrome patients; cited from earlier work
progesterone receptor = target: T2, progesterone receptor (Homo sapiens, UniProt P06401); settings: cited from earlier work
T2 sequence (P06401 1-933): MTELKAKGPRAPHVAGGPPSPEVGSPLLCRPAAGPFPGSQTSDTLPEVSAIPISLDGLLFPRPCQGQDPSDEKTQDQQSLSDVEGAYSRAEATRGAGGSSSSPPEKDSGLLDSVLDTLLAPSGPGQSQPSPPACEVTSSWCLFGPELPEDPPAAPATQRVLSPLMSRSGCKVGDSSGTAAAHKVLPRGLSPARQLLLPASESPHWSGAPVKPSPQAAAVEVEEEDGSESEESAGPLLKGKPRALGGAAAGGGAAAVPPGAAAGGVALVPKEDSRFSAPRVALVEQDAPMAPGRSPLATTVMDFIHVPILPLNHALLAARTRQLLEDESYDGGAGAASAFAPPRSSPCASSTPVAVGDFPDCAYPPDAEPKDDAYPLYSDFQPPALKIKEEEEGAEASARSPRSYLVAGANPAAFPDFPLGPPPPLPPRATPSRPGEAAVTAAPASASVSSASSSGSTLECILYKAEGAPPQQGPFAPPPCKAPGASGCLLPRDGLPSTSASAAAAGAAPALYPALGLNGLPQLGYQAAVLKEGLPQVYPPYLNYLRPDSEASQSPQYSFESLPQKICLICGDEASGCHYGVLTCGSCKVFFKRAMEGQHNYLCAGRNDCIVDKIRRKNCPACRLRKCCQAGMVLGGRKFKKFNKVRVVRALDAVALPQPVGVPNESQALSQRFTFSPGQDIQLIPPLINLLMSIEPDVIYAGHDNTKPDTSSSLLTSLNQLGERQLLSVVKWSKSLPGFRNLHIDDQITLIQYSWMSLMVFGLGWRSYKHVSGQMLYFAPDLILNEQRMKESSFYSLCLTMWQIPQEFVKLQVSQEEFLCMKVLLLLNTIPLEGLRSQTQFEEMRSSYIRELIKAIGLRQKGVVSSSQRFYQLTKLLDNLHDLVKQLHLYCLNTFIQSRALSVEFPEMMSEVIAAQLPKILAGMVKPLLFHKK

[5] = target: T3, glucocorticoid receptor type 2 (GR) (Homo sapiens, UniProt P04150); settings: cited from earlier work
T3 sequence (P04150 1-777): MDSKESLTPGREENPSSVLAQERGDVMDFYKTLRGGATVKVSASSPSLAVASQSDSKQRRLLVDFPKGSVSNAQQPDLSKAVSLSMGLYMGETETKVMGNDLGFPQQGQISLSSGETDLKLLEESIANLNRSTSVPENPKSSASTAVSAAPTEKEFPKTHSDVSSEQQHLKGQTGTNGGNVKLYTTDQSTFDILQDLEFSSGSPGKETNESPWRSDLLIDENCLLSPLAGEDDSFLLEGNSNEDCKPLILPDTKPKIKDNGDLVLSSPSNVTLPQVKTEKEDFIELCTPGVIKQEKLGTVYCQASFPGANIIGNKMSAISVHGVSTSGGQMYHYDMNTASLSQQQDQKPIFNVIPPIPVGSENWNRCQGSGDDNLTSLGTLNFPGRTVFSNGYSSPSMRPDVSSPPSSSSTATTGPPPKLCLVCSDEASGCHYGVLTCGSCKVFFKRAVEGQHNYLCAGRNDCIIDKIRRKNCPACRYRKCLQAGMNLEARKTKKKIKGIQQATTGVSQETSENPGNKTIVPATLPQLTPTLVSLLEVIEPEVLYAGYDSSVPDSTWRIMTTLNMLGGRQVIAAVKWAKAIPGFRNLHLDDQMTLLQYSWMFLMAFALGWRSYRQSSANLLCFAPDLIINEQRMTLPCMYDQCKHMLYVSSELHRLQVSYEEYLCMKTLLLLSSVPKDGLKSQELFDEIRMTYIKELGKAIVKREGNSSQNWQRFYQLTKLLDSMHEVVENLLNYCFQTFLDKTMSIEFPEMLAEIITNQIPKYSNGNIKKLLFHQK

Cn1cc(S(=O)(=O)N2CCC3=Cc4c(cnn4-c4ccc(F)cc4)C[C@]3(C(=O)c3cc(C(F)(F)F)ccn3)C2)cn1 [relacorilant, (R)-(1-(4-fluorophenyl)-6-((1-methyl-1H-pyrazol-4-yl)sulfonyl)-4,4a,5,6,7,8-hexahydro-1H-pyrazolo[3,4-g]isoquinolin-4a-yl)(4-(trifluoromethyl)pyridin-2-yl)methanone]
normalization of ALT in patients with abnormal ALT values at baseline ([1]; Cushing's syndrome patients): 2 of 4
change in LFTs, baseline to last observation ([1]; both dose groups (100-200 mg/day 12 weeks; 250-400 mg/day 16 weeks)): Reductions
change in LFTs, high-dose group compared with low-dose group ([1]; high-dose group 250-400 mg/day, 16 weeks): greater reductions
route of elimination [2]: primarily hepatic
CYP2C9 inhibition (CYP2C9): does not result in clinically significant inhibition
pharmacokinetic difference, moderate hepatic impairment vs matched controls ([3]; 300 mg/day for 10 days, fasted): No apparent difference
relacorilant exposures (area under the curve and maximum plasma concentration) across both groups ([3]; moderate hepatic impairment vs matched controls): largely overlapped
change in mean liver function tests (ALT, AST) ([3]; patients with moderate hepatic impairment, 300 mg/day for 10 days, fasted, baseline to Day 16): Reductions
CYP3A4 inhibition (CYP3A4): strong CYP3A4 inhibitor
CYP2C8 inhibition (CYP2C8): does not result in clinically significant inhibition
antiprogesterone effects or drug-induced hypokalemia [4]: without antiprogesterone effects or drug-induced hypokalemia
effect on hypertension and hyperglycemia [4]: clinically meaningful improvement
other cortisol-excess-related comorbidities (hypercoagulopathy, cognitive function, mood, quality of life) [4]: Improvement
affinity for the progesterone receptor (progesterone receptor): lacks affinity
binding to GR [5]: binds
